Test results as given in patent publication US11919886B2, “4,9-dioxo-4,9-dihydronaphtho[2,3-B]furan-3-carboxamide derivatives and uses thereof for treating proliferative diseases and infectious diseases” (Academia Sinica, priority 2016, dated 2024).

Assays:
H1975 cell line = assay: Sulforhodamine B colorimetric (SRB) assay, H1975; settings: Homo sapiens, NCI-H1975, 72 h, H1975 cell line, SRB assay, 72 hours
[1] = system: Breast Cancer Cells (MDA-MB231); assay: Cell viability by Cell-TiterGlo; format: cell-based; settings: Homo sapiens, MDA-MB-231, 48 h, two days, read-out: % of the activities in the presence of ~10 μM compound, Breast Cancer Cells (MDA-MB231)
Protocol: (§1) Compound 1 and its analogues shown in Table 6 below were tested for their activities on cancer cells and bacterial cells using assays described herein. H1975, MDA-MB231, and MCF7 cells were incubated in the presence of the compounds in cell growth medium containing 10% fetal bovine serum for two days in a mammalian cell culture incubatoe. Cell viability were monitored by using Cell-TiterGlo. Staphylococcus aureus and Escherichia coli were incubated in the presence of the compounds in Muller-Hinton broth for 16-24 hours in a 37° C. incubator. Bacterial growth was monitored by using Alamar Blue (Invitrogen).

[2] = system: Lung Cancer Cells (H1975); assay: Cell viability by Cell-TiterGlo; format: cell-based; settings: Homo sapiens, NCI-H1975, 48 h, two days, read-out: % of the activities in the presence of ~10 μM compound, Lung Cancer Cells (H1975)
Protocol: as §1

[3] = system: Breast Cancer Cells (MCF); assay: Cell viability by Cell-TiterGlo; format: cell-based; settings: Homo sapiens, 48 h, two days, read-out: % of the activities in the presence of ~10 μM compound, Breast Cancer Cells (MCF)
Protocol: as §1

Escherichia coli = assay: Bacterial growth by Alamar Blue in Muller-Hinton broth; format: cell-based; settings: 16-24 hours, read-out: % of the activities in the presence of ~10 μM compound, Escherichia coli
Protocol: as §1

Staphylococcus aureus = assay: as above; format: cell-based; settings: ~10 μM, 16-24 hours, Alamar Blue, read-out: % of the activities in the presence of ~10 μM compound, Staphylococcus aureus
Protocol: as §1

IC50 (H1975 cell line) [µM] | melting point [°C] | Compound | viability at 10 µM [1] [%] | viability at 10 µM [2] [%] | viability at 10 µM [3] [%] | activity at 10 µM (Escherichia coli) [%] | activity at 10 µM (Staphylococcus aureus) [%]
0.826 |  | O=C1c2ccccc2C(=O)c2c1oc(-c1ccccc1)c2C(=O)NCCCn1ccnc1 [Compound 9, N-(3-(1H-imidazol-1-yl)propyl)-4,9-dioxo-2-phenyl-4,9-dihydronaphtho[2,3-b]furan-3-carboxamide] |  |  |  |  | 
0.26 |  | CC(C)c1oc2c(c1C(=O)NCCCn1ccnc1)C(=O)c1ccccc1C2=O [Compound 10, N-(3-(1H-imidazol-1-yl)propyl)-2-isopropyl-4,9-dioxo-4,9-dihydronaphtho[2,3-b]furan-3-carboxamide] |  |  |  |  | 
0.288 |  | CCc1oc2c(c1C(=O)NCCCn1ccnc1)C(=O)c1ccccc1C2=O [Compound 11, N-(3-(1H-imidazol-1-yl)propyl)-2-ethyl-4,9-dioxo-4,9-dihydronaphtho[2,3-b]furan-3-carboxamide] |  |  |  |  | 
0.918 | 143.5 to 150.7 | Cc1oc2c(c1C(=O)NCCCn1cccc1)C(=O)c1ccccc1C2=O [Compound 12, N-(3-(1H-pyrrol-1-yl)propyl)-2-methyl-4,9-dioxo-4,9-dihydronaphtho[2,3-b]furan-3-carboxamide] |  |  |  |  | 
0.25 | 158.6 to 164.1 | Cc1oc2c(c1C(=O)NCCCCn1ccnc1)C(=O)c1ccccc1C2=O [Compound 13, N-(4-(1H-imidazol-1-yl)butyl)-2-methyl-4,9-dioxo-4,9-dihydronaphtho[2,3-b]furan-3-carboxamide] |  |  |  |  | 
> 10 | 151.4 to 152.7 | Cc1oc2c(c1C(=O)NCCCCc1ccccc1)C(=O)c1ccccc1C2=O [Compound 17, 2-Methyl-4,9-dioxo-N-(4-phenylbutyl)-4,9-dihydronaphtho[2,3-b]furan-3-carboxamide] |  |  |  |  | 
0.024 |  | Cc1oc2c(c1C(=O)NCCCN1CCCC1)C(=O)c1ccccc1C2=O [Compound 18, 2-Methyl-4,9-dioxo-N-(3-(pyrrolidin-1-yl)propyl)-4,9-dihydronaphtho[2,3-b]furan-3-carboxamide] |  |  |  |  | 
0.08 |  | Cc1oc2c(c1C(=O)NCCCN1CCOCC1)C(=O)c1ccccc1C2=O [Compound 20, 2-Methyl-N-(3-morpholinopropyl)-4,9-dioxo-4,9-dihydronaphtho[2,3-b]furan-3-carboxamide] |  |  |  |  | 

Second part, the molecule before the results:

Compound | IC50 (H1975 cell line) [µM] | melting point [°C] | viability at 10 µM [1] [%] | viability at 10 µM [2] [%] | viability at 10 µM [3] [%] | activity at 10 µM (Escherichia coli) [%] | activity at 10 µM (Staphylococcus aureus) [%]
Cc1oc2c(c1C(=O)NCCn1ccnc1)C(=O)c1ccccc1C2=O [Compound 5, N-(2-(1H-imidazol-1-yl)ethyl)-2-methyl-4,9-dioxo-4,9-dihydronaphtho [2,3-b]furan-3-carboxamide] | 0.28 |  |  |  |  |  | 
Cc1[nH]c2c(c1C(=O)NCCCn1ccnc1)C(=O)c1ccccc1C2=O [Compound 45, N-(3-(1H-imidazol-1-yl)propyl)-2-methyl-4,9-dioxo-4,9-dihydro-1H-benzo[f]indole-3-carboxamide] | 8.73 |  |  |  |  |  | 
O=C(NCCN1CCOCC1)c1coc2c1C(=O)c1ccccc1C2=O [Compound 00053891400] |  |  | 12.2 | 4 | 6.1 | > 100 | > 100
Cc1oc2c(c1C(=O)N1CCC(C)CC1)C(=O)c1ccccc1C2=O [Compound 00054506228] |  |  | 54.4 | 4.6 | 13.6 | > 100 | 65.4
COCCNC(=O)c1c(C)oc2c1C(=O)c1ccccc1C2=O [Compound 00054811255] |  |  | 13.4 | 4.2 | 6.5 | > 100 | > 100
Cc1oc2c(c1C(=O)NC(C)(C)C)C(=O)c1ccccc1C2=O [Compound 00055422098] |  |  | 69.8 | 3.7 | 35 | > 100 | > 100
CCCCNC(=O)c1c(C)oc2c1C(=O)c1ccccc1C2=O [Compound 00055422996] |  |  | 20.9 | 4.3 | 6.9 | > 100 | > 100
Cc1oc2c(c1C(=O)NCCC(C)C)C(=O)c1ccccc1C2=O [Compound 00055727872] |  |  | 72 | 4.2 | 44.3 | > 100 | > 100
Cc1oc2c(c1C(=O)N1CCOCC1)C(=O)c1ccccc1C2=O [Compound 00056034607] |  |  | 61.2 | 4.4 | 12.9 | > 100 | 75.8
